≈ marks a conversion by molar mass, not a printed value.
Legend:
Test in all cases: ≥ marks a high value that may be exact or a test limit, other limits are often not marked, values filed in µg/mL are converted to µM
[1] = system: Escherichia coli ATCC 25404
Escherichia coli O157 = system: Escherichia coli O157
Listeria monocytogenes = system: Listeria monocytogenes
[2] = system: Micrococcus luteus ATCC 10420
Salmonella typhimurium = system: Salmonella typhimurium
[3] = system: Staphylococcus aureus ATCC 25923
[4] = system: Staphylococcus epidermidis ATCC 9709
[5] = system: Bacillus licheniformis X39
[6] = system: Candida albicans ATCC 2002
[7] = system: Enterococcus faecalis 981
[8] = system: Enterococcus faecium 091299
[9] = system: Escherichia coli ATCC 25922
[10] = system: Psychrobacter faecalis X29
[11] = system: Rhodococcus rhodochrous X15
[12] = system: Staphylococcus carnosus KHS
[13] = system: Acinetobacter baumannii NM8
[14] = system: Escherichia coli ATCC 25726
[15] = system: Staphylococcus aureus 127/08
[16] = system: Stenotrophomonas maltophilia B32/1
[17] = system: Stenotrophomonas maltophilia B32/4
[18] = system: Acinetobacter baumannii ATCC 19606
[19] = system: Bacillus magaterium AB90008
[20] = system: Enterobacter cloacae AB2010162
[21] = system: Escherichia coli DH5alpha
[22] = system: Klebsiella pneumoniae ATCC 27736
[23] = system: Micrococcus luteus AB2010179
[24] = system: Pseudomonas aeruginosa ATCC BAA-427
Pseudomonas fluorescens = system: Pseudomonas fluorescens
Pseudomonas putida = system: Pseudomonas putida
[25] = system: Salmonella enterica AB2010185
[26] = system: Staphylococcus aureus AB94004
[27] = system: Staphylococcus aureus ATCC 33591
[28] = system: Candida albicans ATCC 90028
[29] = system: Klebsiella pneumoniae ATCC 700603
[30] = system: Pseudomonas aeruginosa ATCC 27853
[31] = system: Corynebacterium xerosis C875
Escherichia coli DC2 = system: Escherichia coli DC2
Escherichia coli UB1005 = system: Escherichia coli UB1005
[32] = system: Staphylococcus epidermidis C621
[33] = system: Staphylococcus aureus ATCC 29213
[34] = system: Staphylococcus aureus ATCC 43300

CC(C)C[C@H](NC(=O)[C@H](CC(C)C)NC(=O)[C@H](CCCCN)NC(=O)[C@H](CO)NC(=O)[C@H](CC(C)C)NC(=O)[C@H](C)NC(=O)[C@H](CCCCN)NC(=O)[C@H](Cc1c[nH]c2ccccc12)NC(=O)[C@H](CC(C)C)NC(=O)[C@H](C)NC(=O)CNC(=O)[C@H](CC(C)C)NC(=O)[C@@H](N)Cc1ccccc1)C(=O)O [FLGALWKALSKLL]
MIC [1]: ≥ 64 µM
MIC (Escherichia coli O157): ≥ 64 µM
MIC (Listeria monocytogenes): 4 µM (≈ 5.84 µg/mL)
MIC [2]: 2 µM (≈ 2.92 µg/mL)
MIC (Salmonella typhimurium): ≥ 64 µM
MIC [3]: 4 µM (≈ 5.84 µg/mL)
MIC [4]: 4 µM (≈ 5.84 µg/mL)

CC[C@H](C)[C@H](NC(=O)[C@H](CC(C)C)NC(=O)[C@@H]1CCCN1C(=O)[C@H](CC(C)C)NC(=O)[C@@H](N)Cc1ccccc1)C(=O)N[C@@H](C)C(=O)N[C@@H](CO)C(=O)N[C@H](C(=O)N[C@@H](C)C(=O)N[C@@H](C)C(=O)N[C@@H](CC(N)=O)C(=O)N[C@@H](CC(C)C)C(=O)N[C@H](C(=O)N1CCC[C@H]1C(=O)N[C@@H](CCCCN)C(=O)N[C@H](C(=O)N[C@@H](Cc1ccccc1)C(=O)N[C@H]1CSSC[C@@H](C(=O)O)NC(=O)[C@H](CCCCN)NC(=O)[C@H](CCCCN)NC(=O)[C@H]([C@@H](C)O)NC(=O)[C@H]([C@@H](C)CC)NC(=O)[C@H](CCCCN)NC1=O)[C@@H](C)CC)C(C)C)C(C)C [FLPLIASVAANLVPKIFCKITKKC]
MIC [5]: 2.4 µM (≈ 6.28 µg/mL)
MIC [6]: 9.5 µM (≈ 24.9 µg/mL)
MIC [7]: ≥ 75 µM
MIC [8]: ≥ 37.5 µM
MIC [9]: 150 µM (≈ 392 µg/mL)
MIC [10]: 9.5 µM (≈ 24.9 µg/mL)
MIC [11]: 1.2 µM (≈ 3.14 µg/mL)
MIC [3]: 2.4 µM (≈ 6.28 µg/mL)
MIC [12]: 19 µM (≈ 49.7 µg/mL)

CC[C@H](C)[C@@H]1NC(=O)[C@H](CCCCN)NC(=O)[C@@H](NC(=O)[C@H](C)NC(=O)[C@@H](NC(=O)[C@H](CC(C)C)NC(=O)[C@H](CC(=O)O)NC(=O)[C@@H](NC(=O)CNC(=O)[C@H](CC(C)C)NC(=O)[C@H](CCCCN)NC(=O)[C@H](C)NC(=O)[C@H](CC(C)C)NC(=O)[C@H](CC(=O)O)NC(=O)[C@H](CCCCN)NC(=O)CNC(=O)[C@H](CC(C)C)NC(=O)CNC(=O)[C@@H](N)CCCCN)C(C)C)C(C)C)CSSC[C@@H](C(=O)O)NC(=O)[C@H](CCC(N)=O)NC(=O)[C@H](CCCCN)NC(=O)[C@H](CO)NC1=O [KGLGKDLAKLGVDLVACKISKQC]
MIC [13]: ≥ 200 µM
MIC [14]: ≥ 200 µM
MIC [15]: ≥ 200 µM
MIC [3]: > 200 µM
MIC [16]: ≥ 200 µM
MIC [17]: ≥ 200 µM

CC[C@H](C)[C@H](N)C(=O)N[C@@H](CC(C)C)C(=O)NCC(=O)N[C@@H](CCC(=O)O)C(=O)N[C@H](C(=O)N[C@@H](Cc1c[nH]c2ccccc12)C(=O)N[C@@H](CCCCN)C(=O)NCC(=O)N[C@H](C(=O)N[C@@H](CCCCN)C(=O)N[C@@H](CC(=O)O)C(=O)N[C@H](C(=O)N[C@@H](CC(C)C)C(N)=O)[C@@H](C)CC)[C@@H](C)CC)[C@@H](C)CC [ILGEIWKGIKDIL]
MIC [18]: > 26.7 µM
MIC [19]: ≥ 41 µM
MIC [20]: ≥ 82 µM
MIC [9]: ≥ 100 µM
MIC [21]: ≥ 82 µM
MIC [22]: ≥ 100 µM
MIC [23]: ≥ 82 µM
MIC [24]: ≥ 100 µM
MIC (Pseudomonas fluorescens): ≥ 82 µM
MIC (Pseudomonas putida): ≥ 82 µM
MIC [25]: ≥ 82 µM
MIC [26]: ≥ 82 µM
MIC [3]: ≥ 100 µM
MIC [27]: ≥ 100 µM

CC[C@H](C)[C@@H]1NC(=O)[C@H](CCCCN)NC(=O)[C@@H](NC(=O)[C@H](C)NC(=O)[C@@H](NC(=O)[C@H](CC(C)C)NC(=O)[C@H](CC(=O)O)NC(=O)[C@@H](NC(=O)CNC(=O)[C@H](CC(C)C)NC(=O)[C@H](CCCCN)NC(=O)[C@H](C)NC(=O)[C@H](CC(C)C)NC(=O)[C@H](CC(=O)O)NC(=O)[C@H](CCCCN)NC(=O)CNC(=O)[C@H](CC(C)C)NC(=O)CNC(=O)[C@H](CCCCN)NC(=O)[C@H](CO)NC(=O)[C@H](C)NC(=O)[C@H](Cc2ccccc2)NC(=O)[C@H](CCCCN)NC(=O)[C@H](C)NC(=O)[C@@H](NC(=O)CNC(=O)[C@H](CCCN=C(N)N)NC(=O)[C@H](Cc2ccccc2)NC(=O)[C@@H](NC(=O)[C@H](CO)NC(=O)[C@H](CO)NC(=O)[C@H](Cc2ccccc2)NC(=O)CN)[C@@H](C)CC)C(C)C)C(C)C)C(C)C)CSSC[C@@H](C(=O)O)NC(=O)[C@H](CCC(N)=O)NC(=O)[C@H](CCCCN)NC(=O)[C@H](CO)NC1=O [GFSSIFRGVAKFASKGLGKDLAKLGVDLVACKISKQC]
MIC [13]: 6 µM (≈ 23 µg/mL)
MIC [28]: 10 µM (≈ 38.4 µg/mL)
MIC [14]: 5 µM (≈ 19.2 µg/mL)
MIC [29]: 5 µM (≈ 19.2 µg/mL)
MIC [30]: 5 µM (≈ 19.2 µg/mL)
MIC [15]: 6 µM (≈ 23 µg/mL)
MIC [3]: 5 µM (≈ 19.2 µg/mL)
MIC [16]: 6 µM (≈ 23 µg/mL)
MIC [17]: 3 µM (≈ 11.5 µg/mL)

C[C@H](NC(=O)[C@H](C)NC(=O)[C@H](C)NC(=O)[C@H](Cc1cnc[nH]1)NC(=O)[C@H](C)NC(=O)[C@H](C)NC(=O)[C@H](C)NC(=O)[C@H](CCCCN)NC(=O)[C@@H](N)CCCCN)C(=O)N[C@@H](C)C(=O)N[C@@H](C)C(=O)N[C@@H](Cc1cnc[nH]1)C(=O)N[C@@H](C)C(=O)N[C@@H](C)C(=O)N[C@@H](Cc1c[nH]c2ccccc12)C(=O)N[C@@H](C)C(=O)N[C@@H](C)C(=O)N[C@@H](Cc1cnc[nH]1)C(=O)N[C@@H](C)C(=O)N[C@@H](C)C(=O)N[C@@H](C)C(=O)N[C@@H](CCCCN)C(=O)N[C@@H](CCCCN)C(=O)N[C@@H](CCCCN)C(=O)N[C@@H](CCCCN)C(N)=O [KKAAAHAAAAAHAAWAAHAAAKKKK]
MIC [31]: ≥ 32 µM
MIC (Escherichia coli DC2): ≥ 64 µM
MIC (Escherichia coli UB1005): ≥ 64 µM
MIC [32]: ≥ 64 µM

CC(C)C[C@H](NC(=O)[C@H](CC(C)C)NC(=O)[C@H](Cc1cnc[nH]1)NC(=O)[C@H](CO)NC(=O)[C@H](CC(C)C)NC(=O)[C@H](C)NC(=O)[C@H](CCCCN)NC(=O)[C@H](Cc1ccccc1)NC(=O)[C@H](CC(C)C)NC(=O)[C@H](C)NC(=O)CNC(=O)[C@H](CC(C)C)NC(=O)[C@@H](N)Cc1ccccc1)C(=O)O [FLGALFKALSHLL]
MIC [1]: ≥ 64 µM
MIC (Escherichia coli O157): ≥ 64 µM
MIC (Listeria monocytogenes): 8 µM (≈ 11.4 µg/mL)
MIC [2]: 8 µM (≈ 11.4 µg/mL)
MIC (Salmonella typhimurium): ≥ 64 µM
MIC [33]: 8 µM (≈ 11.4 µg/mL)
MIC [34]: 4 µM (≈ 5.72 µg/mL)
MIC [4]: 8 µM (≈ 11.4 µg/mL)

Source: DBAASP
